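Each compound was tested at five concentrations against cells in 96-well plates for 48 hours. TGI: concentration producing complete growth inhibition.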
Tests used:
Assay in all cases: NCI tumour cell line growth inhibition, 48 h
HL-60(TB) leukemia = tested on: HL-60(TB) leukemia
A498 renal = tested on: A498 renal
SNB-19 CNS = tested on: SNB-19 CNS
XF 498 CNS = tested on: XF 498 CNS
SNB-78 CNS = tested on: SNB-78 CNS
M14 melanoma = tested on: M14 melanoma
SF-539 CNS = tested on: SF-539 CNS
M19-MEL melanoma = tested on: M19-MEL melanoma
DMS 273 small cell lung = tested on: DMS 273 small cell lung
HCT-15 colon = tested on: HCT-15 colon
MOLT-4 leukemia = tested on: MOLT-4 leukemia
SF-295 CNS = tested on: SF-295 CNS
HT29 colon = tested on: HT29 colon
A549 NSCLC = tested on: A549 NSCLC
HCT-116 colon = tested on: HCT-116 colon
ACHN renal = tested on: ACHN renal
UACC-257 melanoma = tested on: UACC-257 melanoma
DLD-1 colon = tested on: DLD-1 colon
KM12 colon = tested on: KM12 colon
IGROV1 ovarian = tested on: IGROV1 ovarian
RXF 393 renal = tested on: RXF 393 renal
HOP-62 NSCLC = tested on: HOP-62 NSCLC
K-562 leukemia = tested on: K-562 leukemia
UO-31 renal = tested on: UO-31 renal
SW-620 colon = tested on: SW-620 colon
LXFL 529 NSCLC = tested on: LXFL 529 NSCLC
TK-10 renal = tested on: TK-10 renal
SK-MEL-2 melanoma = tested on: SK-MEL-2 melanoma
SN12C renal = tested on: SN12C renal
SK-MEL-5 melanoma = tested on: SK-MEL-5 melanoma
OVCAR-3 ovarian = tested on: OVCAR-3 ovarian
SK-OV-3 ovarian = tested on: SK-OV-3 ovarian
EKVX NSCLC = tested on: EKVX NSCLC
U251 CNS = tested on: U251 CNS
KM20L2 colon = tested on: KM20L2 colon
CCRF-CEM leukemia = tested on: CCRF-CEM leukemia
OVCAR-4 ovarian = tested on: OVCAR-4 ovarian
HOP-92 NSCLC = tested on: HOP-92 NSCLC
DMS 114 small cell lung = tested on: DMS 114 small cell lung
MALME-3M melanoma = tested on: MALME-3M melanoma
OVCAR-8 ovarian = tested on: OVCAR-8 ovarian
RPMI-8226 leukemia = tested on: RPMI-8226 leukemia
COLO 205 colon = tested on: COLO 205 colon
SK-MEL-28 melanoma = tested on: SK-MEL-28 melanoma
SNB-75 CNS = tested on: SNB-75 CNS
NCI-H226 lung = tested on: NCI-H226 lung
SF-268 CNS = tested on: SF-268 CNS
NCI-H460 lung = tested on: NCI-H460 lung
UACC-62 melanoma = tested on: UACC-62 melanoma
HCC-2998 colon = tested on: HCC-2998 colon
NCI-H23 lung = tested on: NCI-H23 lung
786-0 renal = tested on: 786-0 renal
OVCAR-5 ovarian = tested on: OVCAR-5 ovarian
LOX IMVI melanoma = tested on: LOX IMVI melanoma
HOP-18 NSCLC = tested on: HOP-18 NSCLC
CAKI-1 renal = tested on: CAKI-1 renal
SR leukemia = tested on: SR leukemia

CC(=O)O[C@H]1CC[C@@]2(C)C(=CC[C@H]3C(CC#N)[C@@](C)(C#N)CCC32)C1 (stereo partly specified)
TGI (HL-60(TB) leukemia): > 100 µM | TGI (A498 renal): > 100 µM | TGI (SNB-19 CNS): > 100 µM | TGI (XF 498 CNS): > 100 µM | TGI (SNB-78 CNS): > 100 µM | TGI (M14 melanoma): > 100 µM | TGI (SF-539 CNS): > 100 µM | TGI (M19-MEL melanoma): > 100 µM | TGI (DMS 273 small cell lung): > 100 µM | TGI (HCT-15 colon): > 100 µM | TGI (MOLT-4 leukemia): > 100 µM | TGI (SF-295 CNS): > 100 µM | TGI (HT29 colon): > 100 µM | TGI (A549 NSCLC): > 100 µM | TGI (HCT-116 colon): > 100 µM | TGI (ACHN renal): > 100 µM | TGI (UACC-257 melanoma): > 100 µM | TGI (DLD-1 colon): > 100 µM | TGI (KM12 colon): > 100 µM | TGI (IGROV1 ovarian): > 100 µM | TGI (RXF 393 renal): > 100 µM | TGI (HOP-62 NSCLC): > 100 µM | TGI (K-562 leukemia): > 100 µM | TGI (UO-31 renal): > 100 µM | TGI (SW-620 colon): > 100 µM | TGI (LXFL 529 NSCLC): > 100 µM | TGI (TK-10 renal): > 100 µM | TGI (SK-MEL-2 melanoma): > 100 µM | TGI (SN12C renal): > 100 µM | TGI (SK-MEL-5 melanoma): > 100 µM | TGI (OVCAR-3 ovarian): > 100 µM | TGI (SK-OV-3 ovarian): > 100 µM | TGI (EKVX NSCLC): > 100 µM | TGI (U251 CNS): > 100 µM | TGI (KM20L2 colon): > 100 µM | TGI (CCRF-CEM leukemia): > 100 µM | TGI (OVCAR-4 ovarian): > 100 µM | TGI (HOP-92 NSCLC): 88.9 µM | TGI (DMS 114 small cell lung): > 100 µM | TGI (MALME-3M melanoma): > 100 µM | TGI (OVCAR-8 ovarian): > 100 µM | TGI (RPMI-8226 leukemia): > 100 µM | TGI (COLO 205 colon): > 100 µM | TGI (SK-MEL-28 melanoma): > 100 µM | TGI (SNB-75 CNS): > 100 µM | TGI (NCI-H226 lung): > 100 µM | TGI (SF-268 CNS): > 100 µM | TGI (NCI-H460 lung): > 100 µM | TGI (UACC-62 melanoma): > 100 µM | TGI (HCC-2998 colon): > 100 µM | TGI (NCI-H23 lung): > 100 µM | TGI (786-0 renal): > 100 µM | TGI (OVCAR-5 ovarian): > 100 µM | TGI (LOX IMVI melanoma): > 100 µM

CCCCSC1CCSc2c1ccc1ccccc21 (stereo unspecified)
TGI (HL-60(TB) leukemia): > 100 µM | TGI (SNB-19 CNS): > 100 µM | TGI (XF 498 CNS): 63.9 µM | TGI (SNB-78 CNS): > 100 µM | TGI (M14 melanoma): > 100 µM | TGI (SF-539 CNS): > 100 µM | TGI (M19-MEL melanoma): > 100 µM | TGI (HCT-15 colon): > 100 µM | TGI (MOLT-4 leukemia): > 100 µM | TGI (SF-295 CNS): > 100 µM | TGI (HT29 colon): > 100 µM | TGI (A549 NSCLC): > 100 µM | TGI (HCT-116 colon): > 100 µM | TGI (DLD-1 colon): > 100 µM | TGI (KM12 colon): > 100 µM | TGI (IGROV1 ovarian): > 100 µM | TGI (RXF 393 renal): > 100 µM | TGI (HOP-62 NSCLC): > 100 µM | TGI (K-562 leukemia): > 100 µM | TGI (UO-31 renal): > 100 µM | TGI (HOP-18 NSCLC): > 100 µM | TGI (TK-10 renal): > 100 µM | TGI (SK-MEL-2 melanoma): > 100 µM | TGI (SK-MEL-5 melanoma): > 100 µM | TGI (SK-OV-3 ovarian): > 100 µM | TGI (U251 CNS): > 100 µM | TGI (KM20L2 colon): > 100 µM | TGI (OVCAR-4 ovarian): > 100 µM | TGI (HOP-92 NSCLC): > 100 µM | TGI (DMS 114 small cell lung): > 100 µM | TGI (MALME-3M melanoma): 46.9 µM | TGI (OVCAR-8 ovarian): > 100 µM | TGI (RPMI-8226 leukemia): > 100 µM | TGI (COLO 205 colon): > 100 µM | TGI (SK-MEL-28 melanoma): > 100 µM | TGI (UACC-62 melanoma): > 100 µM | TGI (CAKI-1 renal): > 100 µM | TGI (HCC-2998 colon): > 100 µM | TGI (NCI-H23 lung): > 100 µM | TGI (786-0 renal): > 100 µM | TGI (SR leukemia): > 100 µM | TGI (OVCAR-5 ovarian): > 100 µM
